Results from patent publication US20240051968A1, “METHODS FOR TREATING SPINOCEREBELLAR ATAXIA TYPE 3” (PTC Therapeutics, Inc., priority 2021, published 2024).

Tests used:
[1] = system: Total ATXN3 (tATXN3) protein; test: Endogenous Total ATXN3 (tATXN3) Protein Assay (MSD immunoassay of cell lysates); format: cell-based; details: cells incubated with compound 48 h; 7-point concentration curve; MSD detection in cell lysate
Procedure: Endogenous Total ATXN3 (tATXN3) Protein Assay
Meso Scale Discovery (MSD) 96-well or 384-well plates were coated overnight at 4° C. with Ataxin 3 mouse monoclonal antibody (Invitrogen, MA3-082) at a concentration of 0.5 μg/mL in PBS (30 μL per well). Plates were then washed three times with 300 μL wash buffer (0.05% TWEEN®-20, polyethylene glycol sorbitan monolaurate, in PBS) and blocked (Meso Scale Diagnostics, R93BA-1; 5% BSA in PBS) for 2 h at room temperature with rotational shaking and then washed three times with wash buffer.
(§1) Test compounds were serially diluted 3.16-fold in 100% DMSO to generate a 7-point concentration curve. Aliquots of 0.5 μL of diluted compounds were transferred to a 96-well flat bottom plate by a liquid handler. An aliquot of 0.5 μL DMSO was also transferred to separate wells and used as controls. Duplicate samples were set up for each compound concentration and for the DMSO control.
Cells were thawed and incubated in cell culture media (DMEM, 10% FBS, and 1% antibiotic cocktail) for 72 h. Cells were trypsinized, counted, and re-suspended to a concentration of 100,000 cells/mL in cell culture media. A 100 μL aliquot of the cell suspensions were plated at 10,000 cells per well in the compound containing 96 well microtiter plate and incubated for in a cell culture incubator (37° C., 5% CO2, 100% relative humidity). After 48 h, the medium was removed and 50-100 μL of lysis buffer (Meso Scale Diagnostics, R60TX-2) containing 1× halt protease inhibitor cocktail of (Thermo Scientific, Halt™ Protease Inhibitor Cocktail, 78430) per well was added to cells to provide a “cell lysate”. The plate was placed on a shaker at 4° C. for 30 minutes, then stored at −80° C.
Cell lysate samples (25 μL) were transferred to the antibody-coated MSD plate and incubated overnight at 4° C. After removal of the lysates, the plate was washed three times with wash buffer, and 25 μL of Ataxin 3 recombinant rabbit monoclonal antibody (Invitrogen, #702788) secondary antibody (diluted to 0.25 μg/mL in 0.05% TWEEN®-20 in blocking buffer) was added to each well and incubated with shaking for 1-2 h at room temperature. Following incubation with the secondary antibody, the wells were rinsed with wash buffer and then […] Anti Rabbit Antibody Goat SULFO-TAG Labeled (Meso Scale Diagnostics, R32AB-1) detecting antibody (diluted to 0.25 μg/mL in 0.05% TWEEN®-20 in blocking buffer) was added to each well and incubated with shaking for 1 h at room temperature. After rinsing three times with wash buffer, 150 μL of Read Buffer T with surfactant (tris-based buffer containing tripropylamine, Meso Scale Diagnostics, R92TC-1) were added to each empty well, and the plate was imaged on a SI 6000 imager (MSD) according to manufacturers' instructions provided for 96- or 384-well plates.

ATXN3 pre-mRNA = test: RT-qPCR Assay to Quantify Exon 4 Skipping in ATXN3 pre-mRNA in Cells; format: cell-based; details: cells incubated with compound 24 h, 7-point concentration curve, GAPDH control
Procedure: as §1, with “RT-qPCR Assay to Quantify Exon 4 Skipping in ATXN3 pre-mRNA in Cells Test” for “Test”
Cells were thawed and incubated in cell culture media (DMEM, 10% FBS, and 1% antibiotic cocktail) for 72 h. Cells were trypsinized, counted, and re-suspended to a concentration of 100,000 cells/mL in cell culture media. A 100 μL aliquot of the cell suspensions were plated at 10,000 cells per well in the compound containing 96 well microtiter plate and incubated for in a cell culture incubator (37° C., 5% CO2, 100% relative humidity).
After 24 h, media was aspirated from the cells and 50 μL of the RCL2 lysis buffer (10 mM Tris-HCL pH 7.4, 150 mM NaCl, 0.33% IGEPAL® CA-630) was added to each well and incubated at room temperature for 1 min. Chilled nuclease free water (50 μL per well) was added and the plates were immediately transferred on ice. After 1 min on ice, plates were frozen at −80° C. overnight.
Preparation of RT-qPCR Reaction Mixture:
An aliquot of 2 μL/well of the cell lysates was transferred using the liquid handler to the Armadillo 384-Well PCR plate containing 8 μL/well of the RT-qPCR reaction mixture that was prepared as detailed above. The plates were then sealed with MicroAmp™ Optical Adhesive Film followed by spinning down for 1 min and placed in the CFX384 thermocycler (BioRad).
The RT-qPCR was carried out at the following temperatures for the indicated time: • Step 1: 48° C. (30 min) • Step 2: 95° C. (10 min) • Step 3: 95° C. (15 sec) • Step 4: 60° C. (1 min); then, repeated Steps 3 and 4 for a total of 40 cycles.
The percent exon 4 skipping was calculated for each dose of compound treatment using Equations 1 and 2.
Data were fit to a dose response curve and the IC50 was interpolated using XLfit® statistical and curve fitting package.
An IC50 value between >2.0 μM and ≤3.0 μM is indicated by one star (*). […] IC50 value between >0.5 μM and ≤1.0 μM is indicated by four stars (****). An IC50 value ≤0.5 μM is indicated by five stars (*****).

IC50 [1] [nM] | IC50 (ATXN3 pre-mRNA) [nM] | IC50 (average), total ATXN3 protein [1] | IC50, exon 4 skipping in ATXN3 pre-mRNA (ATXN3 pre-mRNA) | Compound
≤ 500 | ≤ 500 | – | – | Cc1c(C[C@@H](N)C(=O)N(C)C)sc2c(NCc3ccco3)cc(Cl)nc12 [Cpd 116, 3-(5-chloro-7-{[(furan-2-yl)methyl]amino}-3-methylthieno[3,2-b]pyridin-2-yl)-N,N-dimethyl-D-alaninamide]
≤ 500 | ≤ 500 | – | – | CS(=O)(=O)C[C@H](N)Cc1sc2c(NCc3ccco3)cc(Cl)nc2c1Br [Cpd 117, 2-[(2R)-2-amino-3-(methanesulfonyl)propyl]-3-bromo-5-chloro-N-[(furan-2-yl)methyl]thieno[3,2-b]pyridin-7-amine]
≤ 500 | ≤ 500 | – | – | CSC[C@H](N)Cc1sc2c(NCc3ccco3)cc(Cl)nc2c1Br [Cpd 118, 2-[(2R)-2-amino-3-(methylsulfanyl)propyl]-3-bromo-5-chloro-N-[(furan-2-yl)methyl]thieno[3,2-b]pyridin-7-amine]
500 to 1000 | ≤ 500 | – | – | N[C@H](Cc1sc2c(NCc3ccco3)cc(Cl)nc2c1Cl)C(=O)Nc1ccccc1F [Cpd 120, 3-(3,5-dichloro-7-{[(furan-2-yl)methyl]amino}thieno[3,2-b]pyridin-2-yl)-N-(2-fluorophenyl)-D-alaninamide]
500 to 1000 | ≤ 500 | – | – | N[C@H](Cc1sc2c(NCc3ccco3)cc(Cl)nc2c1Cl)C(=O)O [Cpd 121, 3-(3,5-dichloro-7-{[(furan-2-yl)methyl]amino}thieno[3,2-b]pyridin-2-yl)-D-alanine]
≤ 500 | ≤ 500 | – | – | N[C@H](Cc1sc2c(NCc3ccco3)cc(Cl)nc2c1Cl)C(=O)Nc1ccccc1 [Cpd 122, 3-(3,5-dichloro-7-{[(furan-2-yl)methyl]amino}thieno[3,2-b]pyridin-2-yl)-N-phenyl-D-alaninamide]
≤ 500 | ≤ 500 | – | – | C#C[C@H](N)Cc1sc2c(NCc3ccco3)cc(Cl)nc2c1C [Cpd 123, 2-[(2R)-2-aminobut-3-yn-1-yl]-3-methyl-5-chloro-N-[(furan-2-yl)methyl]thieno[3,2-b]pyridin-7-amine]
≤ 500 | ≤ 500 | – | – | C[C@H](F)[C@H](N)Cc1sc2c(NCc3nccs3)cc(Cl)nc2c1Br [Cpd 125, 2-[(2R,3S)-2-amino-3-fluorobutyl]-3-bromo-5-chloro-N-[(1,3-thiazol-2-yl)methyl]thieno[3,2-b]pyridin-7-amine]
≤ 500 | ≤ 500 | – | – | Cc1c(C[C@@H](N)[C@H](C)F)sc2c(NCc3cccs3)cc(Cl)nc12 [Cpd 126, 2-[(2R,3S)-2-amino-3-fluorobutyl]-5-chloro-3-methyl-N-[(thiophen-2-yl)methyl]thieno[3,2-b]pyridin-7-amine]
≤ 500 | ≤ 500 | – | – | C[C@H](N)C(O)c1sc2c(NCc3cccs3)cc(Cl)nc2c1Cl (stereo partly drawn) [Cpd 127, (2S)-2-amino-1-(3,5-dichloro-7-{[(thiophen-2-yl)methyl]amino}thieno[3,2-b]pyridin-2-yl)propan-1-ol]
≤ 500 | ≤ 500 | – | – | Cc1c(C[C@@H](N)[C@H](C)F)sc2c(NCc3nccs3)cc(Cl)nc12 [Cpd 128, 2-[(2R,3S)-2-amino-3-fluorobutyl]-5-chloro-3-methyl-N-[(1,3-thiazol-2-yl)methyl]thieno[3,2-b]pyridin-7-amine]
≤ 500 | ≤ 500 | – | – | C[C@H](N)C(F)c1sc2c(NCc3cccs3)cc(Cl)nc2c1Cl (stereo partly drawn) [Cpd 130, 2-[(2S)-2-amino-1-fluoropropyl]-3,5-dichloro-N-[(thiophen-2-yl)methyl]thieno[3,2-b]pyridin-7-amine]
500 to 1000 | ≤ 500 | – | – | C[C@H](N)C(F)(F)c1sc2c(NCc3cccs3)cc(Cl)nc2c1Cl [Cpd 132, 2-[(2S)-2-amino-1,1-difluoropropyl]-3,5-dichloro-N-[(thiophen-2-yl)methyl]thieno[3,2-b]pyridin-7-amine]
≤ 500 | ≤ 500 | – | – | Cc1c(C[C@@H](N)C(=O)Nc2cnccn2)sc2c(NCc3ccco3)cc(Cl)nc12 [Cpd 135, 3-(5-chloro-7-{[(furan-2-yl)methyl]amino}-3-methylthieno[3,2-b]pyridin-2-yl)-N-pyrazin-2-yl-D-alaninamide]
≤ 500 | ≤ 500 | – | – | Cc1c(C[C@@H](N)C(=O)Nc2ccncc2)sc2c(NCc3ccco3)cc(Cl)nc12 [Cpd 140, 3-(5-chloro-7-{[(furan-2-yl)methyl]amino}-3-methylthieno[3,2-b]pyridin-2-yl)-N-pyridin-4-yl-D-alaninamide]
1000 to 1500 | 1000 to 1500 | – | – | Cc1c(C[C@@H](N)C(=O)N(C)c2ccccc2)sc2c(NCc3ccco3)cc(Cl)nc12 [Cpd 141, 3-(5-chloro-7-{[(furan-2-yl)methyl]amino}-3-methylthieno[3,2-b]pyridin-2-yl)-N-methyl-N-phenyl-D-alaninamide]
≤ 500 | ≤ 500 | – | – | Cc1c([C@H](C)[C@H](C)N)sc2c(NCc3ccco3)cc(Cl)nc12 [Cpd 150, 2-[(2R,3S)-3-aminobutan-2-yl]-5-chloro-N-[(furan-2-yl)methyl]-3-methylthieno[3,2-b]pyridin-7-amine]
1000 to 1500 | 1000 to 1500 | – | – | Cc1c([C@@H](C)[C@H](C)N)sc2c(NCc3ccco3)cc(Cl)nc12 [Cpd 151, 2-[(2S,3S)-3-aminobutan-2-yl]-5-chloro-N-[(furan-2-yl)methyl]-3-methylthieno[3,2-b]pyridin-7-amine]
– | – | inactive | inactive | Cc1c(CCN)sc2c(NCc3ccco3)cc(Cl)nc12 [Cpd 152, 2-(2-aminoethyl)-5-chloro-N-[(furan-2-yl)methyl]-3-methylthieno[3,2-b]pyridin-7-amine]
– | – | inactive | inactive | C[C@H](N)C(O)c1sc2c(NCc3ccco3)cc(Cl)nc2c1Br (stereo partly drawn) [Cpd 153, (2S)-2-amino-1-(3-bromo-5-chloro-7-{[(furan-2-yl)methyl]amino}thieno[3,2-b]pyridin-2-yl)propan-1-ol]
≤ 500 | ≤ 500 | – | – | C[C@H](N)C(F)c1sc2c(NCc3ccco3)cc(Cl)nc2c1Br (stereo partly drawn) [Cpd 154, 2-[(2S)-2-amino-1-fluoropropyl]-3-bromo-5-chloro-N-[(furan-2-yl)methyl]thieno[3,2-b]pyridin-7-amine]
– | – | inactive | inactive | C[C@H](N)C(O)c1sc2c(NCc3cccs3)cc(Cl)nc2c1Br (stereo partly drawn) [Cpd 155, (2S)-2-amino-1-(3-bromo-5-chloro-7-{[(thiophen-2-yl)methyl]amino}thieno[3,2-b]pyridin-2-yl)propan-1-ol]
